Data taken from the supplement of paper PMC10307832.

Tests used:
Experiment in all cases: relative viability (nuclei count vs DMSO), 5 days (fraction); higher = more cells survive
FH535 + Olaparib = compound: CC1=C(C=CC(=C1)[N+](=O)[O-])NS(=O)(=O)C2=C(C=CC(=C2)Cl)Cl [FH535] + O=C(c1cc(Cc2n[nH]c(=O)c3ccccc23)ccc1F)N1CCN(C(=O)C2CC2)CC1 [Olaparib] (partner 8 µM)
In short: (§1)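 Values are medians from duplicate plates. Each reflects relative viability, defined as the nuclei count of treated wells over that of vehicle wells. Lung cancer cell lines in 1536-well plates were pin-tool dosed one day after seeding with one drug alone or with a fixed anchor-drug dose plus five library-drug doses (not always all listed) in √10 steps, then fixed, stained and imaged at 4× after 5 days.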

FH535 + Navitoclax = compound: CC1=C(C=CC(=C1)[N+](=O)[O-])NS(=O)(=O)C2=C(C=CC(=C2)Cl)Cl [FH535] + CC1(C)CCC(c2ccc(Cl)cc2)=C(CN2CCN(c3ccc(C(=O)NS(=O)(=O)c4ccc(N[C@H](CCN5CCOCC5)CSc5ccccc5)c(S(=O)(=O)C(F)(F)F)c4)cc3)CC2)C1 [Navitoclax] (partner 0.5 µM)
In short: as §1

FH535 + Tozasertib = compound: CC1=C(C=CC(=C1)[N+](=O)[O-])NS(=O)(=O)C2=C(C=CC(=C2)Cl)Cl [FH535] + Cc1cc(Nc2cc(N3CCN(C)CC3)nc(Sc3ccc(NC(=O)C4CC4)cc3)n2)n[nH]1 [Tozasertib] (partner 0.1 µM)
In short: as §1

FH535 + Trametinib = compound: CC1=C(C=CC(=C1)[N+](=O)[O-])NS(=O)(=O)C2=C(C=CC(=C2)Cl)Cl [FH535] + CC(=O)Nc1cccc(-n2c(=O)n(C3CC3)c(=O)c3c(Nc4ccc(I)cc4F)n(C)c(=O)c(C)c32)c1 [Trametinib] (partner 0.02 µM)
In short: as §1

FH535 + OSI-027 = compound: CC1=C(C=CC(=C1)[N+](=O)[O-])NS(=O)(=O)C2=C(C=CC(=C2)Cl)Cl [FH535] + COc1cccc2cc(-c3nc([C@H]4CC[C@H](C(=O)O)CC4)n4ncnc(N)c34)[nH]c12 [OSI-027] (partner 0.5 µM)
In short: as §1

Cell Line | relative viability (FH535 + Olaparib; first compound 0.04 µM) | relative viability (FH535 + Olaparib; first compound 0.1265 µM) | relative viability (FH535 + Olaparib; first compound 0.4 µM) | relative viability (FH535 + Olaparib; first compound 1.265 µM) | relative viability (FH535 + Navitoclax; first compound 0.04 µM) | relative viability (FH535 + Navitoclax; first compound 0.1265 µM) | relative viability (FH535 + Navitoclax; first compound 0.4 µM) | relative viability (FH535 + Navitoclax; first compound 1.265 µM) | relative viability (FH535 + Tozasertib; first compound 0.04 µM) | relative viability (FH535 + Tozasertib; first compound 0.1265 µM) | relative viability (FH535 + Tozasertib; first compound 0.4 µM) | relative viability (FH535 + Tozasertib; first compound 1.265 µM) | relative viability (FH535 + Trametinib; first compound 0.04 µM) | relative viability (FH535 + Trametinib; first compound 0.1265 µM) | relative viability (FH535 + Trametinib; first compound 0.4 µM) | relative viability (FH535 + Trametinib; first compound 1.265 µM) | relative viability (FH535 + OSI-027; first compound 0.04 µM) | relative viability (FH535 + OSI-027; first compound 0.1265 µM) | relative viability (FH535 + OSI-027; first compound 0.4 µM) | relative viability (FH535 + OSI-027; first compound 1.265 µM)
LXF-289 | 0.916 | 1.06 | 1.03 | 0.587 | 0.996 | 0.936 | 0.945 | 0.645 | 0.191 | 0.172 | 0.166 | 0.136 | 0.726 | 0.689 | 0.62 | 0.436 | 0.735 | 0.809 | 0.688 | 0.69
NCI-H23 | 0.255 | 0.331 | 0.3 | 0.273 |  | 0.821 | 0.818 | 0.703 | 0.281 | 0.344 | 0.466 | 0.301 | 0.345 | 0.448 | 0.418 | 0.306 | 0.408 | 0.471 | 0.642 | 0.546
NCI-H322M | 0.739 | 0.664 | 0.778 | 0.741 | 1.13 | 1.39 | 1.19 | 1.2 | 0.493 | 0.514 | 0.475 | 0.468 | 0.47 | 0.459 | 0.478 | 0.526 | 0.543 | 0.54 | 0.577 | 0.394
NCI-H441 | 0.516 | 0.501 | 0.459 | 0.439 | 0.669 | 0.773 | 0.502 | 0.365 | 0.614 | 0.755 | 0.581 | 0.564 | 0.454 | 0.334 | 0.428 | 0.394 | 0.529 | 0.559 | 0.508 | 0.527
NCI-H460 | 0.402 | 0.386 | 0.379 | 0.32 | 1.15 | 1.25 | 1.11 | 0.696 | 0.219 | 0.5 | 0.382 | 0.21 | 0.12 | 0.152 | 0.157 | 0.103 | 0.612 | 0.754 | 0.542 | 0.375
NCI-H520 | 0.319 | 0.277 | 0.268 | 0.314 | 1.11 | 1.09 | 1.06 | 0.882 | 0.375 | 0.44 | 0.393 | 0.401 | 0.703 | 0.691 | 0.696 | 0.684 | 0.199 | 0.286 | 0.296 | 0.192
NCI-H596 | 0.725 | 0.815 | 0.733 | 0.598 | 0.856 | 0.967 | 1.05 | 0.874 | 0.947 | 0.992 | 0.931 | 0.696 | 0.814 | 0.864 | 0.854 | 0.748 | 0.697 | 0.551 | 0.55 | 0.652
NCI-H647 | 0.586 | 0.528 | 0.467 | 0.509 | 1.06 | 1.2 | 1.1 | 0.919 | 0.314 | 0.145 | 0.176 | 0.42 | 0.51 | 0.566 | 0.424 | 0.418 | 0.486 | 0.809 | 0.673 | 0.543
NCI-H727 | 0.746 | 0.675 | 0.527 | 0.549 | 0.479 | 0.39 | 0.369 | 0.381 | 0.465 | 0.545 | 0.582 | 0.504 | 0.402 | 0.362 | 0.365 | 0.387 | 0.554 | 0.498 | 0.545 | 0.478
NCI-H838 | 0.727 | 0.768 | 0.66 | 0.475 | 1.16 | 1.24 | 1.07 | 0.969 | 0.286 | 0.246 | 0.272 | 0.19 | 0.536 | 0.52 | 0.452 | 0.462 | 0.388 | 0.423 | 0.388 | 0.328
NCI-H1355 | 0.649 | 0.796 | 0.709 | 0.476 | 0.862 | 0.998 | 0.88 | 0.66 | 0.507 | 0.584 | 0.557 | 0.399 | 0.397 | 0.428 | 0.406 | 0.329 | 0.366 | 0.466 | 0.349 | 0.303
NCI-H1395 | 0.491 | 0.46 | 0.437 | 0.414 | 1 | 1.23 | 1.06 | 0.895 | 0.68 | 0.872 | 0.774 | 0.678 | 0.936 | 1.02 | 1.06 | 0.874 | 0.581 | 0.613 | 0.61 | 0.476
NCI-H1437 | 0.608 | 0.575 | 0.491 | 0.336 | 1.07 | 1.06 | 0.867 | 0.461 | 0.425 | 0.404 | 0.358 | 0.22 | 0.498 | 0.567 | 0.386 | 0.32 | 0.862 | 0.851 | 0.647 | 0.434
NCI-H1650 | 0.841 | 0.741 | 0.698 | 0.641 | 1.17 | 1.27 | 1.17 | 0.856 | 0.369 | 0.425 | 0.513 | 0.343 | 0.476 | 0.714 | 0.459 | 0.584 | 0.558 | 0.591 | 0.456 | 0.523
NCI-H1651 | 0.174 | 0.194 | 0.188 | 0.184 | 1.15 | 1.2 | 1.05 | 0.864 | 0.753 | 0.639 | 0.633 | 0.64 | 0.81 | 0.78 | 0.79 | 0.666 | 0.675 | 0.695 | 0.618 | 0.507
